{"source": "patent US20260216328A1", "about": "“DISRUPTABLE LINKER COMPOSITIONS, SWITCHABLE BISPECIFIC T CELL NANOENGAGER (SWITCH-BITE) COMPOSITIONS COMPRISING THE SAME, AND METHODS OF USE THEREOF” (The Trustees of the University of Pennsylvania, priority 2023, published 2026)", "key": {"E0771-HER2 tumour [1]": {"system": "E0771-HER2 tumour", "assay": "AMD-mediated in vivo disassembly of SiTE-Cy7 (Cy7 signal in tumour)", "set-up": "species or system mouse", "details": "18 h post-SiTE-Cy7, read 6 h later", "experimental": "FIGS. 19A-19C: SiTE was labeled with Cy7 dye (Cy7 was labeled on CD3 Fab) and was i.v. injected to tumour-bearing mice at 0 h. Then. PBS. […] 6 h later, mice were euthanized and the Cy7 signal in different organs and tumour was measured using IVIS. […] FIG. 19E: quantification of the fluorescence in tumour tissues in a-c. Data was shown as mean±SD (n=3), statistical differences were analyzed using two-tailed unpaired Student's t-test. […] SiTE-Cy7 was i.v. infused into tumour bearing mice at 0 h. […] After 24 h, mice were euthanized and the Cy7 signal distribution in major organs and mice body was observed. Cy7 signal was detected in the spleen, kidney and bladder.\nNext, determination as to whether AMD can be used to break down the SiTE in vivo was sought. Cy7 was modified to the CD3 Fab and the Fab assembled with HER2 Fab to formulate SiTE-Cy7. SiTE-Cy7 was i.v. injected to E0771-HER2 tumour-bearing mice at 0 h. […] Mice were euthanized 6 h later and the Cy7 signal in different organs and tumour was measured using an in vivo imaging system (IVIS). […] Most supramolecular chemistry-based strategies for controllable chemotherapeutic release have only been tested in in vitro studies, and only a few in vivo controllable drug release strategies have been reported in this space. […]"}, "E0771-HER2 tumour [2]": {"system": "E0771-HER2 tumour", "assay": "E0771-HER2 tumour growth inhibition in C57/BL6 mice", "format": "in vivo, mouse", "details": "following AMD infusion after SiTE", "excerpt": "FIG. 20A: 106 E0771-HER2 cells were s.c. injected into the right flank of C57/BL6 mice. […] All mice were euthanized at day 23. FIG. 20B: images of mice from all treatment groups on day 23. FIG. 20C: tumour growth curves for different groups. Tumour tissue was isolated on Day 23 and observed for immune cell infiltration. FIG. 20D: repeat of the tumour growth inhibition experiment. FIG. 20E: mouse body weight change during the tumour inhibition experiment. FIG. 20F: percentages of CD45+, CD45+CD3+, CD45+CD3+CD4+/CD8+ cells in the tumour tissues. FIG. 20G: immunofluorescence images of the tumour tissues in different groups with cell nuclei labeled with DAPI (blue) and T cells labeled with anti-CD3 antibody (green). Scale bar: 100 μm.\nTumour size and mouse weight were monitored.\nMinimal changes in mouse weight were observed across the different groups (FIG. 20E), likely because HER2 antigen is not expressed on normal mouse cells, preventing toxicity from on-target, off-tumour activity. At day 23, all mice were euthanized and tumour tissue was collected to determine total lymphocyte and CD3^+ T cell infiltration using flow cytometry and immunofluorescence imaging.\nAdditionally, to confirm that this impact on the tumour tissue was HER2 specific, SiTE activity was evaluated in a HER2 negative E0771 tumour model (FIGS. 24A-24J)."}, "E0771-HER2 tumour [3]": {"system": "E0771-HER2 tumour", "assay": "E0771-HER2 tumour model with HER2 expression in the liver (on-target, off-tumour toxicity)", "experimental": "FIG. 26A: mouse model with expression of human HER2 antigen in the liver was constructed using a piggyback transposon system delivered via lipid nanoparticles (LNPs) encapsulating two plasmids, pCMV-hyPBase and pPB7 TBG.human HER2.P2A.IRFP720, at day −30. At day 0, 10^6 E0771-HER2 tumour cells were injected s.c. into the right flank at day 0. […] FIGS. 26B-26D: mouse tumour growth curves, measurements of mouse body weight, and survival curves, respectively. n=8 mice. P value in FIG. 26D was determined using Log-rank (Mantel-Cox) test. […] FIGS. 26E-26K: measurements of markers for inflammation and toxicity including AST, ALT, TNF-α, IFN-γ, and IL-2 levels in mouse blood at different time points. n=3 mice. […] H&E staining was conducted to detect liver damage in different groups. Scale bar: […]. […] Blue: DAPI: Red, CD3^+ T cells. […] (n=5).\nT cell infiltration in the liver was measured using flow (FIG. 27A). FIG. 27B: liver T cells in different treatment groups at day 13. […] P values were indicated in FIGS. 27B-27C, analyzed by two-tailed unpaired Student's t-test. n=3.\nRecently, a mouse model was reported with stable human HER2 antigen expression in the mouse liver. […] Here, the construction of this mouse model was modified and two plasmids were delivered using a lipid nanoparticle (FIGS. 25A-25D). […] Next, a E0771-HER2 tumour model was constructed in mice with HER2 expression in the liver (FIG. 26A). […] The mice were then monitored for tumour growth, body weight, and survival (FIGS. 26B-26D)."}, "[4]": {"system": "Raji-Luc-GFP tumour cells", "assay": "Cytokine release syndrome in humanized NSG-SGM3 mice with Raji-Luc-GFP tumour", "format": "in vivo, mouse", "details": "10 mg/kg AMD i.v., 24 h post-AMD", "experimental": "An in vivo imaging system (IVIS) was used to monitor tumour burden in vivo. […] FIGS. 41C-41E: Mouse body weight, temperature and survival curves, respectively. n=10 mice. […] The data in FIGS. 41C-41D and FIGS. 41F-41J were plotted as mean±s.d. (n=10) from three independent experiments. […] P value in FIG. 41E was determined using Log-rank (Mantel-Cox) test.\nSiTE and Blinatumomab were also compared with regard to treating symptoms of CRS and neurotoxicity. The humanized mouse model was constructed as before, but this time the piggybac transposon system was not used to express CD19 in the mouse livers. This allowed better analysis of the effects of the SiTE on CRS and neurotoxicity (FIG. 41A). Raji-Luc-GFP cells were i.v. injected at day −14. Blinatumomab, SiTE or PBS were i.v. injected to the mice at day one. Mouse tumour burden, body weight, temperature, and plasma cytokine levels were monitored (FIGS. 41B-41J)."}}}
{"smiles": "NC12CC3CC(CC(C3)C1)C2", "note": "[AMD, adamantan-1-amine]", "values": [{"measurement": "Cy7 signal decrease compared to PBS treatment", "setting": "E0771-HER2 tumour [1]; AMD dispersed in 5% polyoxyethylene castor oil", "value": "over 78%"}, {"measurement": "decrease in Cy7 signal in the tumour", "setting": "E0771-HER2 tumour [1]; AMD dispersed in PBS", "value": "~46", "unit": "%"}, {"measurement": "number of T cells in the tumour tissue", "setting": "E0771-HER2 tumour [2]", "value": "greatly decreased"}, {"measurement": "body weight", "setting": "E0771-HER2 tumour [3]; 100 μg AMD on day 13 after SiTE", "value": "gradual increases in body weight and recovered to a normal range"}, {"measurement": "ALT and AST levels in blood", "setting": "E0771-HER2 tumour [3]; 24 h after AMD infusion following SiTE", "value": "returned to lower levels"}, {"measurement": "T cells in liver tissue", "setting": "E0771-HER2 tumour [3]; AMD infusion after SiTE treatment", "value": "greatly decreased the number of T cells in liver tissue"}, {"measurement": "increased cytokine levels after AMD", "setting": "[4]", "value": "gradually recovered to within normal ranges"}]}
